Experimental findings from patent publication US7342012B2, “Inhibitors of αLβ2 mediated cell adhesion” (Mitsubishi Tanabe Pharma Corporation, priority 1999, dated 2008) are described below.

The melting point is the temperature of the solid-liquid transition.

The compound `COC(=O)c1ccc(CC23CCCCN2C(=O)N(c2cc(Cl)cc(Cl)c2)C3=O)cc1` (centres unmarked) [Example 155, 6-(4-Methoxycarbonylbenzyl)-8-(3,5-dichlorophenyl)-1,8-diazabicyclo[4.3.0]nonane-7,9-dione] showed a melting point of 51 °C. In the case of `O=C(O)c1ccc(CC23CCCCN2C(=O)N(c2cc(Cl)cc(Cl)c2)C3=O)cc1` (centres unmarked) [Example 156] it was 256.2 °C (dec.).

For the compound `CNC(=O)c1ccc(CC23CCCCN2C(=O)N(c2cc(Cl)cc(Cl)c2)C3=O)cc1` (centres unmarked) [Example 157], the melting point was 78.7 °C (dec.). With `CC1(C)COC(c2ccc(CC34CCCCN3C(=O)N(c3cc(Cl)cc(Cl)c3)C4=O)cc2)=N1` (centres unmarked) [Example 159, 6-[4-(4,4-Dimethyl-4,5-dihydro-2-oxazolyl)benzyl]-8-(3,5-dichlorophenyl)-1,8-diazabicyclo[4.3.0]nonane-7,9-dione] the figure was 87.2 °C. In the case of `N#Cc1ccc(CC23CN(C(=O)CCC(=O)O)CCN2C(=O)N(c2cc(Cl)nc(Cl)c2)C3=O)cc1` (centres unmarked) [Example 163, 6-(4-Cyanobenzyl)-4-(3-carboxypropionyl)-8-(2,6-dichloro-4-pyridyl)-1,4,8-triazabicyclo[4.3.0]nonane-7,9-dione] it was 100.9 °C (dec.). On to `C[S+]([O-])c1ccc(CC23CCCN2C(=O)N(c2cc(Cl)cc(Cl)c2)C3=O)cc1` (centres unmarked) [Example 189, 5-(4-Methylsulfinylbenzyl)-3-(3,5-dichlorophenyl)-1,3-diazabicyclo[3.3.0]octane-2,4-dione], for which the melting point was 71.2 °C. With `CS(=O)(=O)c1ccc(CC23CCCN2C(=O)N(c2cc(Cl)cc(Cl)c2)C3=O)cc1` (centres unmarked) [Example 190, 5-(4-Methylsulfonylbenzyl)-3-(3,5-dichlorophenyl)-1,3-diazabicyclo[3.3.0]octane-2,4-dione] the figure was 80.3 °C; with `O=C1N(c2cc(Cl)nc(Cl)c2)C(=O)C2(Cc3ccc(O)cc3)CCCN12` (centres unmarked) [Example 196, 5-(4-Hydroxybenzyl)-3-(2,6-dichloro-4-pyridyl)-1,3-diazabicyclo[3.3.0]octane-2,4-dione], 164.9 °C; with `N#Cc1cc(CC23CCCN2C(=O)N(c2cc(Cl)nc(Cl)c2)C3=O)ccc1O` (centres unmarked) [Example 197, 5-(3-Cyano-4-hydroxybenzyl)-3-(2,6-dichloro-4-pyridyl)-1,3-diazabicyclo[3.3.0]octane-2,4-dione], 113.5 °C.

Consider `O=C1N(c2cc(Cl)cc(Cl)c2)C(=O)C2(Cc3ccc(-c4cccc(CO)c4)cc3)CCCN12` (centres unmarked) [Example 222, 5-[4-(3-Hydroxymethylphenyl)benzyl]-3-(3,5-dichlorophenyl)-1,3-diazabicyclo[3.3.0]octane-l2,4-dione], for which the melting point was determined as 77.1 °C. With `CC(O)c1cccc(-c2ccc(CC34CCCN3C(=O)N(c3cc(Cl)cc(Cl)c3)C4=O)cc2)c1` (centres unmarked) [Example 223, 5-[4-[3-(!-Hydroxy)ethylphenyl]benzyl]-3-(3,5-dichlorophenyl)-1,3-diazabicyclo[3.3.0]octane-2,4-dione] the figure was 66.5 °C; with `COC(=O)/C=C/c1cccc(-c2ccc(CC34CCCN3C(=O)N(c3cc(Cl)cc(Cl)c3)C4=O)cc2)c1` (centres unmarked) [Example 224, (E)-5-[4-[3-(2-Methoxycarbonyl)vinylphenyl]benzyl]-3-(3,5-dichlorophenyl)-1,3-diazabicyclo[3.3.0]octane-2,4-dione], 71.3 °C; with `CC(C)(C)OC(=O)c1c(Cl)cc(N2C(=O)N3CCCC3(Cc3ccc(Br)cc3)C2=O)cc1Cl` (centres unmarked) [Example 225, 5-(4-Bromobenzyl)-3-[3,5-dichloro-4-(t-butoxycarbonyl)phenyl]-1,3-diazabicyclo[3.3.0]octane-2,4-dione], 109 to 110 °C.

As for `O=C(O)CNC(=O)c1c(Cl)cc(N2C(=O)N3CCCC3(Cc3ccc(Br)cc3)C2=O)cc1Cl` (centres unmarked) [Example 227, 5-(4-Bromobenzyl)-3-[3,5-dichloro-4-(carboxymethylcarbamoyl)phenyl]-1,3-diazabicyclo[3.3.0]octane-2,4-dione], the melting point fell in the range of 157 to 158 °C. With `NC(=O)C[C@H](NC(=O)c1c(Cl)cc(N2C(=O)N3CCCC3(Cc3ccc(Br)cc3)C2=O)cc1Cl)C(=O)O` (stereo partly drawn) [Example 229, 5-(4-Bromobenzyl)-3-(3,5-dichloro-4-L-asparaginocarbonylphenyl)-1,3-diazabicyclo[3.3.0]octane-2,4-dione], the melting point is 172 °C.

The compound `O=C1N(c2cccc(Cl)c2)C(=O)C2(Cc3ccc(Br)cc3)CCCN12` (centres unmarked) [Example 230] returned a melting point of 66 °C.

`CSc1cccc(N2C(=O)N3CCCC3(Cc3ccc(Br)cc3)C2=O)c1` (centres unmarked) [Example 231]: the melting point turned out to be 84.8 °C.

`O=C1N(c2cccc(C(F)(F)F)c2)C(=O)C2(Cc3ccc(Br)cc3)CCCN12` (centres unmarked) [Example 233]: the melting point is 82.6 °C. Consider `N#Cc1cccc(N2C(=O)N3CCCC3(Cc3ccc(Br)cc3)C2=O)c1` (centres unmarked) [Example 234], for which the melting point stood at 241 °C. `COc1cc(OC)cc(N2C(=O)N3CCCC3(Cc3ccc(Br)cc3)C2=O)c1` (centres unmarked) [Example 235] showed a melting point of 154.8 °C. In the case of `O=C(O)c1cc(C(=O)O)cc(N2C(=O)N3CCCC3(Cc3ccc(Br)cc3)C2=O)c1` (centres unmarked) [Example 236] it was 259 °C (dec.).

As for `CC(=O)c1cccc(N2C(=O)N3CCCC3(Cc3ccc(Br)cc3)C2=O)c1` (centres unmarked) [Example 237], the melting point came to 120.4 °C.

The compound `O=C1N(c2cccc(F)c2)C(=O)C2(Cc3ccc(Br)cc3)CCCN12` (centres unmarked) [Example 238] gave a melting point of 120.9 °C. In the case of `O=C1N(c2cc(Cl)nc(Cl)c2)C(=O)C2(Cc3cccc([N+](=O)[O-])c3)CCCN12` (centres unmarked) [Example 239, 5-(3-Nitrobenzyl)-3-(2,6-dichloro-4-pyridyl)-1,3-diazacyclo[3.3.0]octane-2,4-dione] it was 182.8 °C; in that of `N#Cc1ccc(CC23CCCN2C(=O)N(c2cc(Cl)cc(Cl)c2N)C3=O)cc1` (centres unmarked) [Example 240, 5-(4-Cyanobenzyl)-3-(2-amino-3,5-dichlorophenyl)-1,3-diazabicyclo[3.3.0]octane-2,4-dione], 122.2 °C; in that of `COC(=O)N[C@@H]1CN2C(=O)N(c3cc(Cl)nc(Cl)c3)C(=O)[C@@]2(Cc2ccc(OC(F)(F)F)cc2)C1` [Example 250, (5R, 7S)-5-[4-(Trifluoromethoxy)benzyl]-3-(2,6-dichloro-4-pyridyl)-7-methoxycarbonylamino-1,3-diazabicyclo[3.3.0]octane-2,4-dione], 119.8 °C. Turning to `NCC(=O)N[C@@H]1CN2C(=O)N(c3cc(Cl)nc(Cl)c3)C(=O)[C@@]2(Cc2ccc(OC(F)(F)F)cc2)C1` [Example 252, (5R, 7S)-5-[4-(Trifluoromethoxy)benzyl]-3-(2,6-dichloro-4-pyridyl)-7-aminoacetylamino-1,3-diazabicyclo[3.3.0]octane-2,4-dione], the melting point was 114 °C. In the case of `CS(=O)(=O)NCC(=O)N[C@@H]1CN2C(=O)N(c3cc(Cl)nc(Cl)c3)C(=O)[C@@]2(Cc2ccc(OC(F)(F)F)cc2)C1` [Example 253, (5R, 7S)-5-[4-(Trifluoromethoxy)benzyl]-3-(2,6-dichloro-4-pyridyl)-7-[(methansulfonylaminoacetyl)amino]-1,3-diazabicyclo[3.3.0]octane-2,4-dione] it was 104.9 °C; in that of `CS(=O)(=O)N[C@@H]1CN2C(=O)N(c3cc(Cl)nc(Cl)c3)C(=O)[C@@]2(Cc2ccc(OC(F)(F)F)cc2)C1` [Example 254, (5R, 7S)-5-[4-(Trifluoromethoxy)benzyl]-3-(2,6-dichloro-4-pyridyl)-7-methanesulfonylamino-1,3-diazabicyclo[3.3.0]octane-2,4-dione], 207.2 °C. With `NC(=O)C(N)CC(=O)N[C@@H]1CN2C(=O)N(c3cc(Cl)nc(Cl)c3)C(=O)[C@@]2(Cc2ccc(OC(F)(F)F)cc2)C1` (stereo partly drawn) [Example 255, (5R, 7S)-5-[4-(Trifluoromethoxy)benzyl]-3-(2,6-dichloro-4-pyridyl)-7-[(3-carbamoyl-3-aminopropanoyl)amino]-1,3-diazabicyclo[3.3.0]octane-2,4-dione] the figure was 107.8 °C; with `CC(=O)NC(CC(=O)N[C@@H]1CN2C(=O)N(c3cc(Cl)nc(Cl)c3)C(=O)[C@@]2(Cc2ccc(OC(F)(F)F)cc2)C1)C(N)=O` (stereo partly drawn) [Example 256, (5R, 7S)-5-[4-(Trifluoromethoxy)benzyl]-3-(2,6-dichloro-4-pyridyl)-7-[(3-carbamoyl-3-acetylaminopropanoyl)amino]-1,3-diazabicyclo[3.3.0]octane-2,4-dione], 152.8 °C. In the case of `O=C1N(c2cc(Cl)cc(Cl)c2)C(=O)C2(Cc3ccccc3)CCCN12` (centres unmarked) [Example 267] it was 173.8 °C; in that of `NC1CN2C(=O)N(c3cc(Cl)nc(Cl)c3)C(=O)C2(Cc2ccc(OC(F)(F)F)cc2)C1` (centres unmarked) [Example 281], 123.5 °C. `CC(=O)NC1CN2C(=O)N(c3cc(Cl)nc(Cl)c3)C(=O)C2(Cc2ccc(OC(F)(F)F)cc2)C1` (centres unmarked) [Example 283] had a melting point of 122.7 °C. In the case of `CCCCC(=O)N[C@@H]1CN2C(=O)N(c3cc(Cl)nc(Cl)c3)C(=O)[C@@]2(Cc2ccc(OC(F)(F)F)cc2)C1` [Example 286, (5R, 7S)-5-[4-(Trifluoromethoxy)benzyl]-3-(2,6-dichloro-4-pyridyl)-7-valerylamino-1,3-diazabicyclo[3.3.0]octane-2,4-dione] it was 66.8 °C; in that of `NC(=O)N[C@@H]1CN2C(=O)N(c3cc(Cl)nc(Cl)c3)C(=O)[C@@]2(Cc2ccc(OC(F)(F)F)cc2)C1` [Example 287, (5R, 7S)-5-[4-(Trifluoromethoxy)benzyl]-3-(2,6-dichloro-4-pyridyl)-7-ureido-1,3-diazabicyclo[3.3.0]octane-2,4-dione], 141.7 °C; in that of `Cc1cc([C@H]2CN3C(=O)N(c4cc(Cl)nc(Cl)c4)C(=O)[C@]3(Cc3ccc(OC(F)(F)F)cc3)C2)c(C)[nH]1` [Example 288, (5R, 7S)-5-[4-(Trifluoromethoxy)benzyl]-3-(2,6-dichloro-4-pyridyl)-7-(2,5-dimethylpyrrolyl)-1,3-diazabicyclo[3.3.0]octane-2,4-dione], 112.4 °C. In the case of `CC(=O)N[C@@H]1CN2C(=O)N(c3cc(Cl)cc(Cl)c3)C(=O)[C@]2(Cc2ccc(OC(F)(F)F)cc2)C1` [Example 291] it was 61.2 °C.
